# Measurements: patent publication US20240279215A1 (Cytokinetics, Incorporated, priority 2022, published 2024)
# Molecular target: human NAMPT (Homo sapiens (Human), UniProt P43490)
# Assay: NMN fluorescence biochemical assay (human recombinant NAMPT enzyme assay)
# Procedure: Compounds described herein were assayed for their ability to stimulate the synthesis of nicotinamide mononucleotide (NMN) by the enzyme NAMPT. The human recombinant enzyme assay measures the activation of the enzyme activity by compounds using recombinant enzyme and substrates in a buffered cell-free system. The assay conditions closely mimic cellular environments. Dose responses were measured using an assay to detect the formation of nicotinamide mono-nucleotide. All experiments were performed in the 384-well format. Generally, 0.5 μL of DMSO containing varying concentrations of the test compound was mixed with 10 μL of the enzyme reagent solution. Enzyme reactions were initiated with the addition of […] containing the substrates. The final assay conditions were as follows: 6 nM human NAMPT, 2.5 mM ATP, 20 μM PRPP and 150 μM nicotinamide in 50 mM HEPES, pH 7.2, 1 mM DTT, 1 mM CHAPS 50 mM NaCl, 100 mM MgCl2. Following an incubation of 60 min at ambient temperature, 10 μL of 20% acetophenone in DMSO was added, followed by 10 μL of 2 M KOH and 40 μL of formic acid. The plates were read for fluorescence (Excitation/Emission=355 nm/460 nm) using an EnVision plate reader after 40 mins of incubation at ambient temperature.
# human NAMPT, sequence (P43490 whole entry): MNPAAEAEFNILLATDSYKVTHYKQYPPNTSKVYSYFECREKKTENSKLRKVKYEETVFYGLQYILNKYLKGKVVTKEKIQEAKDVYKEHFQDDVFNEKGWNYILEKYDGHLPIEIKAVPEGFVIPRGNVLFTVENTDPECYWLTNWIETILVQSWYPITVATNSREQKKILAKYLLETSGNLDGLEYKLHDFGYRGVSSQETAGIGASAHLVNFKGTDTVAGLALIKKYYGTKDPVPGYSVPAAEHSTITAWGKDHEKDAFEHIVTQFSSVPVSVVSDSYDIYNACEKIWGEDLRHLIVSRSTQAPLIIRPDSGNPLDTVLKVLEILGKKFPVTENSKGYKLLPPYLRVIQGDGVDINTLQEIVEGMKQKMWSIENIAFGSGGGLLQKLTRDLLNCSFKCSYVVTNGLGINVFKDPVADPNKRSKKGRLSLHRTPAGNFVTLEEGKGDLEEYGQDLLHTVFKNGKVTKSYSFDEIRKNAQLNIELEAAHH
AC1.4 Human [µM],EC50 [µM],SMILES
0.62,5.27,"COC1CCN(C(=O)N[C@@H](C)c2ccc(NC(=O)OCc3ccc(Cl)cc3)cc2)CC1 [Compound 72, 4-chlorobenzyl (S)-(4-(1-(4-methoxypiperidine-1-carboxamido)ethyl)phenyl)carbamate]"
0.62,1.76,"O=C(Nc1ccc(CN2CCN(c3ncccn3)CC2)cc1)OCc1ccc(Cl)cc1 [Compound 73, 4-chlorobenzyl (4-((4-(pyrimidin-2-yl)piperazin-1-yl)methyl)phenyl)carbamate]"
0.64,1.42,"CN(Cc1ccc(NC(=O)OCc2ccc(Cl)cc2)cc1)C(=O)c1ccnn1C1CCC1 [Compound 74, (4-chlorophenyl)methyl N-(4-{[1-(2-cyclobutylpyrazol-3-yl)-N-methylformamido]methyl}phenyl)carbamate]"
0.64,26.3,"C[C@H](NC(=O)C1CC(F)(F)C1)c1ccc(NC(=O)OCc2cnco2)cc1 [Compound 75, 1,3-oxazol-5-ylmethyl N-{4-[(1S)-1-[(3,3-difluorocyclobutyl)formamido]ethyl]phenyl}carbamate]"
0.64,0.89,"CCc1ccc(C(=O)N[C@@H](C)c2ccc(NC(=O)OCc3ccc(Cl)cc3)cc2)cn1 [Compound 76, (4-chlorophenyl)methyl N-{4-[(1S)-1-[(6-ethylpyridin-3-yl)formamido]ethyl]phenyl}carbamate]"
0.65,1.67,"COCCn1nccc1C(=O)N(C)Cc1ccc(NC(=O)OCc2ccc(Cl)cc2)cc1 [Compound 77, (4-chlorophenyl)methyl N-[4-({1-[2-(2-methoxyethyl)pyrazol-3-yl]-N-methylformamido}methyl)phenyl]carbamate]"
0.65,7.44,"O=C(Nc1ccc(CNC(=O)c2ccncc2F)cc1)OCc1ccc(Cl)cc1 [Compound 78, (4-chlorophenyl)methyl N-(4-{[(3-fluoropyridin-4-yl)formamido]methyl}phenyl)carbamate]"
0.66,23.6,"CC(C)(C)OC(=O)N1CCC(Cc2ccc(NC(=O)OCc3cnco3)cc2)CC1 [Compound 79, tert-butyl 4-(4-(((oxazol-5-ylmethoxy)carbonyl)ami-no)benzyl)piperidine-1-carboxylate]"
0.66,29,"O=C(Nc1ccc(CC2CCN(C3COC3)CC2)cc1)OCc1cnco1 [Compound 80, oxazol-5-ylmethyl (4-((1-(oxetan-3-yl)piperidin-4-yl)methyl)phenyl)carbamate]"
0.66,3.41,"CN1CC(=O)NC[C@@H]1c1ccc(NC(=O)OCc2ccc(Cl)cc2F)cc1 [Compound 81, 4-chloro-2-fluorobenzyl (S)-(4-(1-methyl-5-oxopiperazin-2-yl)phenyl)carbamate]"
0.66,3.9,"CCc1ccc(C(=O)NCc2ccc(NC(=O)OCc3ccc(Cl)cc3)cc2)cn1 [Compound 82, (4-chlorophenyl)methyl N-(4-{[(6-ethylpyridin-3-yl)formamido]methyl}phenyl)carbamate]"
0.66,8.11,"COc1ccc(COC(=O)Nc2ccc(CN3CCN(c4ccccn4)CC3)cc2)cc1 [Compound 83, (4-methoxyphenyl)methyl N-(4-{[4-(pyridin-2-yl)piperazin-1-yl]methyl}phenyl)carbamate]"
0.66,3.12,"O=C(Nc1ccc(CN2CCC3(CC3)C2=O)cc1)OCc1ccc(Cl)cc1 [Compound 84, (4-chlorophenyl)methyl N-[4-({4-oxo-5-azaspiro[2.4]heptan-5-yl}methyl)phenyl]carbamate]"
0.67,6.38,"Cc1ncc(C(=O)N(C)Cc2ccc(NC(=O)OCc3ccc(Cl)cc3)cc2)o1 [Compound 85, (4-chlorophenyl)methyl N-(4-{[N-methyl-1-(2-methyl-1,3-oxazol-5-yl)formamido]methyl}phenyl)carbamate]"

# More lines, now with the values behind:
SMILES,AC1.4 Human [µM],EC50 [µM]
"CN(C)C(=O)N1CCC(Cc2ccc(NC(=O)OCc3ccc(Cl)cc3)cc2)CC1 [Compound 58, 4-chlorobenzyl (4-((1-(dimethylcarbamoyl)piperidin-4-yl)methyl)phenyl)carbamate]",0.55,1.73
"Cc1ccc(C(=O)N[C@@H](C)c2ccc(NC(=O)OCc3ccc(Cl)cc3)cc2)cn1 [Compound 60, 4-chlorobenzyl (S)-(4-(1-(6-methylnicotinamido)ethyl)phenyl)carbamate]",0.57,1.91
"COc1ccc(COC(=O)Nc2ccc(NS(=O)(=O)Cc3ccccc3)cc2)cc1 [Compound 61, 4-methoxybenzyl (4-((phenylmethyl)sulfonamido)phenyl)carbamate]",0.57,2.62
"NC(=O)N1CCC(Cc2ccc(NC(=O)OCc3ccc(Cl)cc3)cc2)CC1 [Compound 62, 4-chlorobenzyl (4-((1-carbamoylpiperidin-4-yl)methyl)phenyl)carbamate]",0.57,2.64
"O=C(Nc1ccc(CN2C(=O)CC3CC32)cc1)OCc1ccc(Cl)cc1 (stereo not shown) [Compound 63, (4-chlorophenyl)methyl N-[4-({3-oxo-2-azabicyclo[3.1.0]hexan-2-yl}methyl)phenyl]carbamate]",0.57,4.93
"CO[C@H]1CC[C@H](NC(=O)Cc2ccc(NC(=O)OCc3ccc(Cl)cc3)cc2)CC1 [Compound 64, (4-chlorophenyl)methyl N-[4-({[(1R,4R)-4-methoxycyclohexyl]carbamoyl}methyl)phenyl]carbamate]",0.58,4.22
"Cc1ccc(Cc2ccc(NC(=O)OCc3cn[nH]c3)cc2)cn1 [Compound 65, (1H-pyrazol-4-yl)methyl (4-((6-methylpyridin-3-yl)methyl)phenyl)carbamate]",0.58,37.1
"Cc1ccc(C(=O)NCc2ccc(NC(=O)OCc3cncs3)cc2)cn1 [Compound 66, thiazol-5-ylmethyl (4-((6-methylnicotinamido)methyl)phenyl)carbamate]",0.59,5.12
"COc1ccc(COC(=O)Nc2ccc(CC3CCN(C4COC4)CC3)cc2)cc1 [Compound 67, 4-methoxybenzyl (4-((1-(oxetan-3-yl)piperidin-4-yl)methyl)phenyl)carbamate]",0.59,21.3
"C[C@H](NC(=O)[C@@H]1C[C@@H]2[C@H](C1)C2(F)F)c1ccc(NC(=O)OCc2cnco2)cc1 [Compound 68, 1,3-oxazol-5-ylmethyl N-{4-[(1S)-1-{[(1R,3s,5S)-6,6-difluorobicyclo[3.1.0]hexan-3-yl]formamido}ethyl]phenyl}carbamate]",0.59,11.1
"CN(Cc1ccc(NC(=O)OCc2ccc(Cl)cc2)cc1)C(=O)c1cn[nH]c1F [Compound 69, (4-chlorophenyl)methyl N-(4-{[1-(3-fluoro-2H-pyrazol-4-yl)-N-methylformamido]methyl}phenyl)carbamate]",0.59,3.07
"CN(Cc1ccc(NC(=O)OCc2ccc(Cl)cc2)cc1)C(=O)c1n[nH]cc1F [Compound 71, (4-chlorophenyl)methyl N-(4-{[1-(4-fluoro-1H-pyrazol-3-yl)-N-methylformamido]methyl}phenyl)carbamate]",0.61,2.51
